Laboratory results published in patent US10647680B2, “Urea compound, preparation method therefor and medical use thereof” (Ancureall Pharmaceutical (Shanghai) Co., Ltd., priority 2016, dated 2020).
Read-outs that look alike come from different tables or passages of the source.

Tests used:
[1] = tested on: P-gp; assay: Bidirectional transmembrane transport and P-gp efflux in Caco-2 monolayer cell model; assay type: in vitro ADME; conditions: human, Caco-2, pH 7.4; Concentration 10, Inhibitor − (without P-gp inhibitor GF120918); read-out: Efflux Ratio Papp (B→A)/Papp (A→B)
Procedure: (§1) The Caco-2 cell transport experiment was performed using compound 77 of the present invention as a representative example.
(§2) Main procedure: Caco-2 cells (ATCC, HTB-37) were cultured in high-glucose DMEM culture medium (Hyclone) containing 10% fetal calf serum (GIBCO) and penicillin-streptomycin (100 units/mL each) (Sigma). Cells were cultured at 37° C. in an incubator containing 5% CO2. In the transport experiment, Caco-2 cells were inoculated on a filter of a 12-well Transwell plate at a density of 2×10^5 cells/well (Coming Costar, catalog #3401, 1.12 cm^2, 0.4 um of pore size). After inoculation, the Caco-2 cells would form intact cell monolayers after 21 days, including P-gp efflux transporter expression and transepithelial cell resistance (TEER) formation. During the period, the culture medium was replaced once every other day. The volume of culture medium at the transwell membrane Apical Side (A) and Basolateral Side (B) were 0.5 mL and 1.5 mL, respectively. Before the transport experiment (day 21), the preheated HBSS buffer (137 mM NaCl, 4.17 mM NaHCO3, 0.34 mM Na2HPO4, 5.37 mM KCl, 0.44 mM KH2PO4, 1.26 mM CaCl2, 0.49 mM MgCl2, 0.41 mM MgSO4, 5.55 Mm D-Glucose, 10 mM HEPES, pH 7.4) was used firstly to wash Caco-2 cell monolayers for three times, and placed to at 37° C. for incubation for 30 minutes, then TEER values were determined using a cell resistometer (Millicell-ERS2) to confirm the integrity and compactness of the cell monolayers. When the HBSS buffer solution on the transmembrane A-side or B-side was replaced with the test compound, the transport experiment was started.
(§3) Finally, after incubation at 37° C. for 2 hours, the transport experiment was terminated and 50 uL of sample solution was taken from both sides of the Transwell filter membrane separately and added to 100 μL of acetonitrile comprising internal standard compound and mixed well, then centrifuged at 13000 rpm, 4° C. for 10 min, and finally 10 μL (or a specific volume) of supernatant was used for LC-MS/MS sample analysis.
(§4) For each compound, transport experiments in the A-B and B-A directions had three replicates, i.e. n=3.
(§5) LC-MS/MS Sample Analysis: The high performance liquid chromatography (HPLC) system used in this research consisted of two pumps (Shimadzu LC-20AD) and an autosampler (Shimadzu SIL-20AC). The HPLC system was connected in series with an API 4000 triple quadrupole mass spectrometer (Applied Biosystems). The API 4000 triple quadrupole mass spectrometer was equipped with an electrospray ionization (ESI) source. Ultrapurified nitrogen was used as curtain gas, GAS1, GAS2, and collision gas, at flow rates of 20 L/h, 55 L/h, 65 L/h, and 6 L/hr, respectively. The atomization temperature of the ion source was set to 500° C. Data was collected using the software Analyst 1.5.
(§6) Data analysis: The apparent permeability coefficient (Papp) can be calculated by the rate at which a compound permeates the monolayer of Caco-2 cells. Its value is related to the absorption of the compound in vivo. After concentrations at A side and B side were determined by LC-MS/MS, the Papp value in the A-B or B-A direction was calculated according to the following formula: Papp(A→B) or Papp(B→A)=(dQ/dt)/(A*C0)=(C2h*V)/(t*π2*C0)
(§7) In the above formula, dQ/dt is the permeation rate, i.e. the amount of compound that permeated in the dt time, C0 is the initial concentration of drug on the administration side, and A is the surface area of the cell monolayer, i.e. the membrane area.
(§8) After obtaining the Papp (A→B) and Papp (B→A) values of the compound, the Efflux Ratio (ER) of the compound could be calculated by the following formula: Efflux Ratio(ER)=Papp(B−A)/Papp(A−B).
(§9) When the ratio of efflux was >2, the compound could be considered as the substrate of the efflux transporter.

[2] = as above; assay type: in vitro ADME; conditions: human
Procedure: as §1, §2, §3, §4, §5, §6, §7, §8, §9

What does the source list for `COCCOc1ccc2c(c1)ncn2-c1ccc(NC(=O)Nc2cc(C(C)(C)C)n[nH]2)cc1` [Compound 77, 1-(5-tert-butyl-2H-pyrazol-3-yl)-3-{4-[5-(2-methoxyl-ethoxyl)-benzimidazol-1-yl]-phenyl}-urea]?
efflux ratio at 2 h [1]: 5.8; Papp A→B at 2 h ([2]; Caco-2, pH 7.4, Caco-2 monolayer cell model, transmembrane permeability, read-out: Papp(A→B) value (conclusions under the table)): 1 to 10 ×10⁻⁶ cm/s; Papp B→A at 2 h ([2]; Caco-2, pH 7.4, Concentration 10, Inhibitor − (without P-gp inhibitor GF120918)): 13.1 ×10⁻⁶ cm/s; Papp A→B at 2 h ([2]; Caco-2, pH 7.4, Concentration 10, Inhibitor − (without P-gp inhibitor GF120918), read-out: Papp (A→B)): 2.24 ×10⁻⁶ cm/s
